Data: ChEMBL document CHEMBL1201862, “PubChem BioAssay data set” (2004)
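Each compound was tested at five concentrations against cells in 96-well plates for 48 hours. At the GI50, growth is halved.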 Calls of active or inactive are those of the source. Rule as the data show it: active = GI50 up to about 1.1 µM and inactive = higher.

What was measured:
Test in all cases: growth of human tumour cells (NCI), 48 h
KM12 = test system: KM12
EKVX = test system: EKVX
NCI-H522 = test system: NCI-H522
786-0 = test system: 786-0
LOX IMVI = test system: LOX IMVI
M14 = test system: M14
Hs-578T = test system: Hs-578T
BT-549 = test system: BT-549
OVCAR-4 = test system: OVCAR-4
NCI/ADR-RES = test system: NCI/ADR-RES
M19-MEL = test system: M19-MEL
MCF7 = test system: MCF7
OVCAR-8 = test system: OVCAR-8
HL-60 = test system: HL-60
UO-31 = test system: UO-31
SNB-19 = test system: SNB-19
HCT-116 = test system: HCT-116
U-251 = test system: U-251
NCI-H23 = test system: NCI-H23
COLO 205 = test system: COLO 205

**Q.** How did the GI50 (KM12) turn out when `OCCOc1ccc(-c2cc(-c3ccccn3)nc(-c3ccccn3)c2)cc1` was run?
**A.** Its GI50 is 296 nM (active).

**Q.** What about the GI50 (EKVX) of the same compound?
**A.** The GI50 was 107 nM (active).

**Q.** What about the GI50 (NCI-H522) of the same compound?
**A.** Its GI50 is 661 nM (active).

**Q.** What about the GI50 (786-0) of the same compound?
**A.** The GI50 was 73.6 nM (active).

**Q.** What about the GI50 (LOX IMVI) of the same compound?
**A.** Its GI50 is 91.6 nM (active).

**Q.** And the GI50 (M14)?
**A.** The GI50 was 219 nM (active).

**Q.** What about the GI50 (Hs-578T) of the same compound?
**A.** Its GI50 is 1370 nM (inactive).

**Q.** What about the GI50 (BT-549) of the same compound?
**A.** Its GI50 is 352 nM (active).

**Q.** What about the GI50 (OVCAR-4) of the same compound?
**A.** The GI50 was 73.1 nM (active).

**Q.** What about the GI50 (NCI/ADR-RES) of the same compound?
**A.** The GI50 was 202 nM (active).

**Q.** And the GI50 (M19-MEL)?
**A.** Its GI50 is 96.2 nM (active).

**Q.** What about the GI50 (MCF7) of the same compound?
**A.** Its GI50 is 277 nM (active).

**Q.** And the GI50 (OVCAR-8)?
**A.** Its GI50 is 70 nM (active).

**Q.** What about the GI50 (HL-60) of the same compound?
**A.** The GI50 was 53.8 nM (active).

**Q.** And the GI50 (UO-31)?
**A.** The GI50 was 124 nM (active).

**Q.** And the GI50 (SNB-19)?
**A.** Its GI50 is 284 nM (active).

**Q.** What about the GI50 (HCT-116) of the same compound?
**A.** The GI50 was 115 nM (active).

**Q.** And the GI50 (U-251)?
**A.** The GI50 was 148 nM (active).

**Q.** And the GI50 (NCI-H23)?
**A.** Its GI50 is 447 nM (active).

**Q.** What about the GI50 (COLO 205) of the same compound?
**A.** The GI50 was 115 nM (active).

**Q.** For `O=C(c1ccccc1)c1nc2ccc(Cl)cc2cc1C(Br)Br`, which GI50 (KM12) is on record?
**A.** The GI50 was 340 nM (active).

**Q.** What about the GI50 (EKVX) of the same compound?
**A.** Its GI50 is 493 nM (active).

**Q.** And the GI50 (NCI-H522)?
**A.** Its GI50 is 1820 nM (inactive).

**Q.** What about the GI50 (786-0) of the same compound?
**A.** The GI50 was 170 nM (active).

**Q.** What about the GI50 (LOX IMVI) of the same compound?
**A.** Its GI50 is 1470 nM (inactive).

**Q.** And the GI50 (M14)?
**A.** The GI50 was 1720 nM (inactive).

**Q.** What about the GI50 (Hs-578T) of the same compound?
**A.** Its GI50 is 193 nM (active).

**Q.** And the GI50 (BT-549)?
**A.** The GI50 was 144 nM (active).

**Q.** And the GI50 (OVCAR-4)?
**A.** The GI50 was 407 nM (active).

**Q.** And the GI50 (NCI/ADR-RES)?
**A.** Its GI50 is 161 nM (active).

**Q.** And the GI50 (M19-MEL)?
**A.** The GI50 was 418 nM (active).

**Q.** What about the GI50 (MCF7) of the same compound?
**A.** The GI50 was 314 nM (active).

**Q.** And the GI50 (OVCAR-8)?
**A.** The GI50 was 242 nM (active).

**Q.** And the GI50 (HL-60)?
**A.** Its GI50 is 222 nM (active).

**Q.** What about the GI50 (UO-31) of the same compound?
**A.** The GI50 was 385 nM (active).

**Q.** And the GI50 (SNB-19)?
**A.** Its GI50 is 425 nM (active).

**Q.** What about the GI50 (HCT-116) of the same compound?
**A.** The GI50 was 108 nM (active).

**Q.** And the GI50 (U-251)?
**A.** Its GI50 is 192 nM (active).

**Q.** And the GI50 (NCI-H23)?
**A.** The GI50 was 304 nM (active).

**Q.** What about the GI50 (COLO 205) of the same compound?
**A.** The GI50 was 344 nM (active).
